Laboratory results published in US20050171342A1, “Conjugates of biologically active compounds, methods for their preparation and use, formulation and pharmaceutical applications thereof” (priority 2002, published 2005).
Read-outs that look alike come from different tables or passages of the source.

Legend:
E. coli (DH5α) = assay: Testing of antibiotic activity (TC50, antibiotic dilution assay, turbidity); assay type: cell-based; conditions: concentration that inhibits 50% of the growth
Protocol: The TC50 or MIC procedure for antibiotic sensitivity testing involves an antibiotic dilution assay, which can be performed in microtitre plates. A series of twofold dilutions of each antibiotic are made in the wells, and then all wells are inoculated with a standard amount of the same test organism. After incubation, growth in the presence of the various antibiotics is observed by measuring turbidity.
Bacteria: B. pumilus and E. coli (DH5α)
Bacterial cultures are initiated from the plates for 2 to 3 weeks. After this time period bacteria are streaked out on new plates from the backups strored at −80° C. Due to the lack of resistance of the bacteria, new cultures are not to be initiated from an old plate or any liquid cultures derived from old plates. • Growth medium (GM)(per liter): 10 g Bacto-tryptone, 5 g Bacto-yeast extract, 6 g HEPES (25 mM), 5.4 g NaCl, pH 7.3 • Compound stocks 10 or 100 mM in DMSO stored at −20° C. Procedure • 1. Grow B. pumilus from an LB agar plate in a flask (max. 10% volume) up to about 50 ml in growth medium (GM) • 2. Dilute overnight suspension 1:10 in GM • 3. Determine OD600 of diluted bacterial suspension • 4. Dilute bacterial suspension in GM to an OD600 of 0.03-0.04. (6 ml/plate) • 5. Add 200 μl GM to the outer wells (Row A, Row H, Column 1, Column 12) • 6. Add 100 μl GM to each well starting from C2, row 3. • 7. Controls: Wells B2-B4 growth control. Wells B6-B8 blank. Row C growth inhibition control. • 7.1. To wells B2-B4 add: […], 4 μl DMSO, and 100 μl bacterial suspension adjusted to an OD600 of 0.03-0.04. • 7.2. To wells B6-B8 add: 196 μl GM and 4 μl DMSO • 7.3. Dilute a 10 mM COMPOUND 43 (positive control) stock to 800 μM (120 μl/plate) in GM. Add 100 μl of 800 μM COMPOUND 43 solution to well C2. • 8. Samples • 8.1. Dilute the 10 or 100 mM stock solutions to 800 μM (250 μl/plate) in GM. • 8.2. Add 100 μl of 800 μM sample in duplicates to wells D2/E2 resp. F2/G2. • 8.3. 2-fold serial dilution of all samples and Azithromycin • 8.3.1. […]
11. Determine OD600 on plate reader.

[1] = test system: white blood cells (immune cells: neutrophils, monocytes, lymphocytes) versus erythrocytes; assay: Immune cell partition / concentrative uptake into white blood cells (immune selectivity ratio); assay type: in vitro ADME, mammalian
Protocol: Freshly drawn heparinised blood or buffy coat preparations are used for the determination of immune cell partition ratios. Buffy coat preparations are preferred. These may be obtained from donor blood by simple centrifugation of whole blood (4795 g for 10 minutes). Following centrifugation, plasma is collected from the surface, after which immune cells are expressed from the donor bags along with the erythrocytes lying immediately below the leukocyte layer. This ensures high yields and a sufficient population of erythrocytes for partition. 5 ml of the resulting cell suspension are dispensed into T25 culture flasks. Substrates are added to a final concentration between 1 and 10 μM and the suspensions incubated at 37° C., in a 5% CO2 atmosphere. For analysis of uptake kinetics, samples are withdrawn at 0, 2, 5, 10, 30, 60, 90, 180, or 240 min after substrate addition. For screening purposes, samples are taken at 0 and 120 minutes.
Cell fractions were prepared using density gradient centrifugation. […]
Uptake of fluorescent compounds is monitored using fluorescence microscopy. Excitation and emission wavelengths depend of the fluorescence label in use. […]

lymphocytes = assay: Proliferation assay (BrdU incorporation, phytohemagglutanin-stimulated lymphocytes); assay type: cell-based, mammalian; conditions: for IC50: Lymphocyte; for Ratio (2 h:72 h): ratio of IC50 at 2 h to IC50 at 72 h, lower = better uptake and drug release
From the text: Assay to determine the in vitro rate of, for example, lymphocyte proliferation. Lymphocytes are purified out of ant coagulated (CPDA, citrate or heparin) mammalian blood using the Lymphoprep™ system (supplier). Purified cells are counted using a hemocytometer following Trypan Blue staining, and a cell concentration of 1×10^6 cells/ml established in RPMi 1640 medium with 10% FCS and antibiotics as required (all from Biochrome). Following the addition of a cell proliferation stimulant, for example phytohemagglutanin (Sigma) at, for example an end concentration of 5 μg/ml, the cells are incubated with different concentrations of the to be investigated compound in 100 μl end volume in a 96-well microtiter plate in an incubator (37° C., 5% CO2, 95% humidity) for 72 h. Cell proliferation is quantified following BrdU incorporation for 16 h by ELISA and subsequent colorimetric development (Cell Proliferation ELISA BrdU (colorimetric) kit from Roche Diagnostics). The IC50 (μM) values are then calculated, and used to compare compound efficacy. To determine the influence of the T-L-C modification on in vitro cellular drug uptake and pharmacology, the above assay is additionally modified and an additional “wash” step included. In addition to running the assay for 72 h with the compounds to be tested, the assay is also run for just 2 h, then compound is washed away in three serial washing steps using 200 μl of medium at each step, and the cells subsequently incubated for a further 70 h. […] The lower the number, the better the uptake and drug release from the T-L-C in the cells (see results in Table 4 for examples), and improvement over mycophenolic acid.

HeLa or JURKAT = assay: Cytotoxicity assay (Alamar Blue) with guanosine rescue, cell-based IMPDH assay
Protocol: HeLa cells (DSMZ, ACC 57) and Jurkat cells (DSMZ, ACC 282) in exponential growth phase are exposed for 3 days to test compounds. The number of surviving cells is then determined by the Alamar Blue assay (Serotec Inc.). This assay incorporates a fluorometric growth indicator based on detection of metabolic activity. Specifically, the system incorporates an oxidation-reduction indicator that fluoresces in response to chemical reduction of the growth medium resulting from cell growth. As cells grow in culture, innate metabolic activity results in a chemical reduction of the immediate surrounding environment. Continued growth maintains a reduced environment while inhibition of growth maintains an oxidized environment. […] Fluorescence is monitored at 560 nm (Exc.) and 590 nm Em.
HeLa cells (1×10^3) or JURKAT cells (1×10^3) are plated in 100 μl MEM medium (with Earle's salt; Biochrom KG) containing 10% FBS, 2 mM L-glutamine, and non-essential animo acids in 96-well plates and incubated at 37° C. and 5% CO2 atmosphere. […] The fluorescence is then measured as described above and the LD50 is determined based on a sigmoidal dose response regression. […] Any toxicity still detected can then be ascribed either to other biological effects of the of T-L-C conjugate of mycophenolic acid, or is due to the very high intracellular concentration of mycophenolic acid, following concentrative uptake into the cell.

[2] = read-out: IC50 (μM) at 2 h, 2 h incubation, compound washed away, further 70 h incubation
[3] = 72 h incubation with compound, read-out: IC50 (μM) at 72 h

SMILES	IC50 (lymphocytes; [2]) [µM]	IC50 (lymphocytes; [3]) [µM]	Ratio (2 h:72 h) (lymphocytes)	further results
CC[C@H]1OC(=O)[C@H](C)[C@@H](O[C@H]2C[C@@](C)(OC)[C@@H](O)[C@H](C)O2)[C@H](C)[C@@H](O[C@@H]2O[C@H](C)CC(N(C)C(=O)CN(C)CCO)[C@H]2O)[C@](C)(O)C[C@@H](C)CN(C)[C@H](C)[C@@H](O)[C@]1(C)O (stereo partly shown) [Compound 45]				TC50 in E. coli (E. coli (DH5α)): >50 µM
COc1cc(C)c(/C(=C\C(C)=O)CC(N)C(=O)O)cc1OC (stereo not shown) [Compound 4]				uptake (speed) ([1]; uptake into immune cells, images during course of uptake): rapid
CC[C@H]1OC(=O)[C@H](C)[C@@H](O[C@H]2C[C@@](C)(OC)[C@@H](O)[C@H](C)O2)[C@H](C)[C@@H](O[C@@H]2O[C@H](C)C[C@H](N(C)C)[C@H]2O)[C@](C)(O)C[C@@H](C)CN(C)[C@H](C)[C@@H](O)[C@]1(C)O [Compound 43, 9a-aza-9a-methyl-9-deoxo-9a-homoerythromycin A, reference compound]				TC50 in E. coli (E. coli (DH5α)): 2.3 µM
CC[C@H]1OC(=O)[C@H](C)[C@@H](OC2C[C@@](C)(OC)[C@@H](O)[C@H](C)O2)[C@H](C)[C@@H](OC2O[C@H](C)C[C@H](N(C)C)[C@H]2O)[C@](C)(O)C[C@@H](C)/C(=N/OCc2cc(=O)oc3cc(OC)c(OC)cc23)[C@H](C)[C@@H](O)[C@]1(C)O (stereo partly shown) [Compound 3]				intracellular distribution ([1]; polymorphonuclear cells, fluorescent image (FIG. 3)): even distribution with some concentration near the nucleus
COc1c(C)c2c(c(O)c1C/C=C(\C)CCC(=O)O)C(=O)OC2 [Mycophenolic acid, reference compound]	2.5	0.54	4.63	effect in the presence of guanosine (HeLa or JURKAT; 50 μM guanosine): completely removed; IC50 (HeLa or JURKAT; normal culture conditions, HeLa or JURKAT): < 2 µM
CCOC(=O)CC/C(C)=C/Cc1c(OC)c(C)c2c(c1OC(=O)CCC(=O)O[C@@H]1C(N(C)C)C[C@@H](C)O[C@H]1O[C@@H]1[C@@H](C)[C@H](O[C@H]3C[C@@](C)(OC)[C@@H](O)[C@H](C)O3)[C@@H](C)C(=O)O[C@H](CC)[C@@](C)(O)[C@H](O)[C@@H](C)N(C)C[C@H](C)C[C@@]1(C)O)C(=O)OC2 (stereo partly shown) [Compound 69]	2.66	1.4	1.9	
CC[C@H]1OC(=O)[C@H](C)[C@@H](O[C@H]2C[C@@](C)(OC)[C@@H](O)[C@H](C)O2)[C@H](C)[C@@H](O[C@@H]2O[C@H](C)C[C@@H](OC(=O)CC/C(C)=C/Cc3c(O)c4c(c(C)c3OC)COC4=O)[C@@H]2N2CCOCC2)[C@](C)(O)C[C@@H](C)CN(C)[C@H](C)[C@@H](O)[C@]1(C)O [Compound 80]	1.41	0.4	3.53	
COc1c(C)c2c(c(O)c1C/C=C(\C)CCC(=O)OC(COCCCCOCC(CN1CCOCC1)OC(=O)CC/C(C)=C/Cc1c(O)c3c(c(C)c1OC)COC3=O)CN1CCOCC1)C(=O)OC2 (stereo not shown) [Compound 81]	1.78	1.12	1.6	
CC[C@H]1OC(=O)[C@H](C)[C@@H](O)[C@H](C)[C@@H](O[C@@H]2O[C@H](C)C[C@@H](N(C)CCOC(=O)CC/C(C)=C/Cc3c(O)c4c(c(C)c3OC)COC4=O)[C@@H]2N(C)C)[C@](C)(O)C[C@@H](C)CN(C)[C@H](C)[C@@H](O)[C@]1(C)O [Compound 74]	3.2	2.2	1.45	
CC[C@H]1OC(=O)[C@H](C)C(=O)[C@H](C)[C@@H](O[C@@H]2O[C@H](C)C[C@H](N(C)C)[C@H]2OC(=O)CC/C(C)=C/Cc2c(O)c3c(c(C)c2OC)COC3=O)[C@](C)(O)C[C@@H](C)CN(C)[C@H](C)[C@@H](O)[C@]1(C)O [Compound 79]	3.16	1.2	2.63	
COc1c(C)c2c(c(O)c1C/C=C(\C)CCC(=O)OCCN1CCOCC1)C(=O)OC2 [Mycophenolate mofetil, reference compound]	1.5	0.33	4.5	
CC[C@H]1OC(=O)[C@H](C)C(=O)[C@H](C)[C@@H](O[C@@H]2O[C@H](C)CC(N(C)C)[C@H]2O)[C@](C)(O)C[C@@H](C)CN(C)[C@H](C)[C@@H](O)[C@]1(C)O (stereo partly shown) [Compound 40]				TC50 in E. coli (E. coli (DH5α)): >50 µM
